Data reported in patent US20240279612A1, “LIVER ORGANOID MANUFACTURING METHODS, LIVER ORGANOIDS OBTAINED WITH THE SAME, AND USES THEREOF” (INSTITUT NATIONAL DE LA SANTÉ ET DE LA RECHERCHE MÉDICALE, priority 2021, published 2024).
Where two headings read alike, the source gives them in different places.

How the values were obtained:
CYP2B6 = assay: Induction of CYP2B6 activity (bupropion to hydroxybupropion, LC-MS/MS) in PHH; details: PHH model, versus basal (DMSO 0.1%)
Protocol: (§1) The primary human hepatocyte (PHH) cell line was obtained from four different healthy donors. PHH cells culture was performed according to the LONZA protocol (described in Document #BR-CryoHep-1 07/20 www.bioscience.lonza.com © 2020 Lonza Walkersville, Inc) with cell seeding at 70,000 cells/well in collagen I-coated 96-well plates (Corning® BioCoat™ Collagen I 96 Clear Well Plate). One hour after seeding, the PHH cells were cultured by the Sandwich method using Matrigel (Corning® Matrigel® Matrix) according to the protocol described in Gijbels et al. (Experimental Cholestasis Research, 2019). PHH cells were used 3 days later (short duration) or 2 weeks later (long duration) for the experiments. PHH cell line was cultivated at 37° C. in a humidified atmosphere with 5% CO2.
(§2) PHH and LO grown in 96-well plates were treated by adding 200 μl/well and HLCs in 6-well plates by adding 1 ml/well of CYP's inductors in a hepatocyte culture medium (HCM) without EGF (Lonza—CC-3198).
(§3) CYPs were induced by different types of inducers (SIGMA) at different concentrations for 3 days (as detailed in TABLE 3): Omeprazole (50 μM), Rifampicin (10 μM), Imidazole (500 μM), Phenobarbital (500 μM) and CITCO (1 μM). A control condition (namely “basal”) is performed with DMSO […] instead of inducer. […]

liver organoid (LO) [1] = details: 48 h
Protocol: Steatosis was induced by amiodarone at 20 μM or ethanol at […] for 2 days after the end of differentiation (Day 28). After fixation of the cells with paraformaldehyde (PFA 4% in PBS) for 15 minutes at room temperature, the lipids were labelled with Nile Red (50 ng/ml) for 1 hour at room temperature and then washed three times with PBS (1000 μl). At this step, samples can be stored in PBS at 4° C.
(§4) After the acquisition of different Z-stacks of the LOs, the images were analyzed and quantified by the image analysis software Metaxpress developed by Molecular Devices.

liver organoid (LO) [2] = assay: Internalization of LDL-bodipy by liver organoids; assay type: cell-based, human; details: 20 hours, then 3 hours LDL-bodipy, compared to controls (FIG. 2)
Protocol: Treatment with mevastatin (20, 25 and 30 μg/ml) or DMSO (0.1%) was performed for 20 hours after the end of differentiation (Day 28). After treatment, LOs were incubated with LDL-bodipy (Invitrogen, Ref: L3483) for 3 hours (INVITROGEN). Finally, once the incubation with LDL-bodipy was completed, the scaffolds were washed three times with HCM medium (LONZA) at 37° C. and then the cells were fixed with paraformaldehyde (PFA 4% in PBS) for 15 minutes at room temperature. At this stage, the samples can be stored in PBS at 4° C.
as §4
Concerning LDL internalization, it was noted that the LO model significatively reacted to mevastatin at concentrations of 20, 25 and 30 ug/ml with an increase in LDL-bodipy internalization of 14, 18 and 26% respectively compared to controls (FIG. 2).

CYP1A2 = assay: Induction of CYP1A2 activity (phenacetin to acetaminophen, LC-MS/MS) in PHH; assay type: in vitro ADME, human; details: PHH model, omeprazole 50 μM for 3 days, versus basal (DMSO 0.1%)
Protocol: as §1, §2, §3

Question: With `Clc1ccc(-c2nc3sccn3c2/C=N/OCc2ccc(Cl)c(Cl)c2)cc1` [CITCO] as the compound, how does the “induction of CYP2B6” value (CYP2B6; CITCO 1 μM for 3 days) read?
Answer: 3.3 times

Question: For `CCCCc1oc2ccccc2c1C(=O)c1cc(I)c(OCCN(CC)CC)c(I)c1` [amiodarone], which “increase in lipid accumulation” value (liver organoid (LO) [1]; 40 µM) is on record?
Answer: 60%

Question: With `CCO` [ethanol] as the compound, how does the “increase in lipid accumulation” value (liver organoid (LO) [1]; 0.1 µM) read?
Answer: 29%

Question: What does the source list for `CC[C@H](C)C(=O)O[C@H]1CCC=C2C=C[C@H](C)[C@H](CC[C@@H]3C[C@@H](O)CC(=O)O3)[C@H]21` [mevastatin]?
Answer: increase in LDL-bodipy internalization (liver organoid (LO) [2]; mevastatin 20 ug/ml): 14%; increase in LDL-bodipy internalization (liver organoid (LO) [2]; mevastatin 25 ug/ml): 18%; increase in LDL-bodipy internalization (liver organoid (LO) [2]; mevastatin 30 ug/ml): 26%

Question: With `COc1ccc2[nH]c([S+]([O-])Cc3ncc(C)c(OC)c3C)nc2c1` (centres unmarked) [omeprazole, Omeprazole] as the compound, how does the “induction of CYP1A2” value (CYP1A2) read?
Answer: 7.2 times

Question: How did the “induction of CYP2B6” value (CYP2B6; phenobarbital 500 μM for 3 days) turn out when `CCC1(c2ccccc2)C(=O)NC(=O)NC1=O` [phenobarbital, Phenobarbital] was run?
Answer: 5.8 times
